Experimental data published in patent US20210212967A1, “Treatment of Irritable Bowel Syndrome” (Gruenenthal GmbH, priority 2010, published 2021).

Columns and labels:
[1] = system: isolated guinea pig ileum; assay: Twitch contractions of the electrically stimulated isolated guinea pig ileum
Description: It was investigated whether tapentadol is able to modulate gastrointestinal motility.
Male guinea pigs (PBW, Charles River, KiBlegg, FRG) weighing 250-350 g were used for the study. The animals were kept under standard housing conditions: light/dark rhythm (06.00-18.00 h light, 18.00-6.00 h dark); room temperature 22±2° C., rel. air humidity 55±5%; 15 air changes per hour, air movement <0,2 m/sec. The animals were given water and an exclusive diet of “Herilan RM 204” (Eggersmann Company, Rinteln/FRG) ad libitum. Before experimental preparation they were kept in groups of up to 5 animals in type IV Makrolon cages (Ebeco Company, Castrop-Rauxel, FRG). There were at least 4 days between delivery and test day.
Tapentadol hydrochloride was dissolved in aqua bidest. Final concentrations in the organ bath ranged from 3·10^−8 to 10^−5 M (cumulative drug application). As opioid antagonist naloxone (10^−6 M) was used.
A four-compartment organ bath (Dept. Biotechnology, Grunenthal GmbH) was employed with 20 ml acrylic glass compartments, organ supports and force transducers (F10 Force transducers, Type 375, HSE, FRG) for the determination of isometric contractions. The organ baths were filled and emptied by means of a semi-automatic dosing arrangement. The nutrient medium in the organ baths was kept at room temperature. In a nutrient storage chamber and in the organ baths the nutrient solution was gassed with carbogen through a frit from 30 min before commencement of the experiment.
The nutrient solution had the following composition:
Parameter: contraction force [g]
Guinea pigs were killed in CO2-atmosphere and the ileum was dissected free from adhering tissue, removed and suspended in the organ bath. After an incubation period of at least 30 min, transmural stimulation pulses were delivered with a duration of 1 ms and an amplitude of 180 mA at 0.03 Hz (Stimulator A310, WPI, FRG) and isometric contractions (Twitch reactions) were recorded. The preparations were pre-tensioned with 1 g. […]
Data were calculated as the mean stimulated contraction force during the period of 4 to 6 min. p. appl. and expressed as percentage of the pre-value. […] All results were expressed as means±s.e.m. of 4 single experiments. For determination of 1050 values, regression lines (y=f log x) were constructed and 1050 values with s.e.m. were calculated using a computer-assisted regression analysis program (Grünenthal GmbH). The reversal of the test compound's activity by the antagonist was expressed as the percentage of the effects of the combination of agonist and antagonist referred to the effects of the test compound alone in the highest concentration according to the following formula: […]

[2] = system: visceral hyperalgesia induced by rectal administration of mustard oil in mice; assay: Mustard oil colitis (visceral pain), curative treatment; format: in vivo
Description: (§1) The effects of tapentadol hydrochloride on visceral hyperalgesia were studied, which was induced by rectal administration of mustard oil in mice (according to Laird J M, Martinez-Caro L, Garcia-Nicas E, Cervero F. (2001) A new model of visceral pain and referred hyperalgesia in the mouse. Pain 92: 335-42). The typical visceral pain behaviour was quantified in three parameters: During the first minutes after mustard oil administration spontaneous visceral pain behaviour occurs. Following this period of spontaneous pain, referred allodynia and hyperalgesia can be quantified by means of von Frey filaments of different strength stimulating the abdomen of the mice.
(§2) Male NMRI mice (28-38 g body weight) from a commercial breeder (Iffa Credo, France) were used. The animals were housed under standardized conditions: light/dark cycle (06.00-18.00 h light, 18.00-06.00 h dark), room temperature 20-24° C., relative air humidity 35-70%, 15 air changes per hour, air movement <0,2 m/sec, tap water and standard diet ad libitum, macrolon type 4 cages with maximally 30 animals per cage. There were at least 5 days between delivery and start of the experiment.
(§3) Tapentadol hydrochloride was dissolved in vehicle solution and injected intra-venously. • Doses: 2.15/ 4.64/ 10.0 mg/kg i.v. (prophylactic) 10.0/ 21.5/ 31.6 mg/kg i.v. (curative) • Administration volume: 10 ml/kg
(§4) Vehicle solution: 0.9% NaCl solution (Fresenius, Bad Homburg, FRG)
(§5) Mustard oil was dissolved in vehicle solution and administered intra-rectally Dose: 50 μl of a 3.5 Vol-% solution per animal • Vehicle solution: PEG 200
Animals were habituated to the test conditions for 20-30 min and stimulated with von Frey filaments onto the abdominal wall. 10 stimulations with von Frey filaments of 1, 4, 8, 16, and 32 mN were applied in ascending order (i.e. 10×1 mN, 10×4 mN, etc.). Animals with more than 25 positive reactions during this phase were excluded. Vaseline was applied in the perianal area to avoid the stimulation of somatic areas with the irritant chemical. Colitis was induced by rectal administration of […] mustard oil (3.5%). Control animals were treated with vehicle (50 μl PEG200). Group sizes were n =7 for all experiments.
Tapentadol hydrochloride or vehicle was given intravenously (i.v.) 4 hours after mustard oil. Seven animals were tested per group. The following parameters were counted 10 minutes before and at different time points after administration of the test compound or vehicle: • 1. Referred allodynia (number of reactions): counting of withdrawal reactions against 10 stimulations with a 1 mN von Frey filament. • 2. Referred hyperalgesia (referred pain score): counting and scoring of withdrawal reactions against 10 stimulations with a 16 mN von Frey filament (Score 1-3, 1=lifting of abdomen, licking, movement, 2=extrusion or flinching of hind paws, slight jumping, strong licking, 3=strong jumping, vocalisation). Percent of maximal possible effect (% MPE) was calculated for each animal based on the baseline taken 10 min before administration of compound or vehicle.
Significance was calculated by paired T-test (* 0.05≥p>0.01; ** 0.01≥p>0.001; *** p≤0.001. ED50 values and 95% confidence intervals were calculated by linear regression.

[3] = system: visceral hyperalgesia induced by rectal administration of mustard oil in mice; assay: Mustard oil colitis (visceral pain), prophylactic treatment; format: in vivo; conditions: i.v. 5 min before mustard oil
Description: as §1, §2, §3, §4, §5
Animals were habituated to the test conditions for 20-30 min and stimulated with von Frey filaments onto the abdominal wall. 10 stimulations with von Frey filaments of 1, 4, 8, 16, and 32 mN were applied in ascending order (i.e. 10×1 mN, 10×4 mN, etc.). Animals with more than 25 positive reactions during this phase were excluded. […]
Tapentadol hydrochloride or vehicle was given intravenously (i.v.) 5 min before mustard oil. […] The following parameters were counted: […]

[4] = clinical studies; cited from earlier work
[5] = target: recombinantly produced p-opioid receptor (Homo sapiens, UniProt P35372); conditions: relative to morphine; cited from earlier work
recombinantly produced p-opioid receptor, sequence (P35372 whole entry): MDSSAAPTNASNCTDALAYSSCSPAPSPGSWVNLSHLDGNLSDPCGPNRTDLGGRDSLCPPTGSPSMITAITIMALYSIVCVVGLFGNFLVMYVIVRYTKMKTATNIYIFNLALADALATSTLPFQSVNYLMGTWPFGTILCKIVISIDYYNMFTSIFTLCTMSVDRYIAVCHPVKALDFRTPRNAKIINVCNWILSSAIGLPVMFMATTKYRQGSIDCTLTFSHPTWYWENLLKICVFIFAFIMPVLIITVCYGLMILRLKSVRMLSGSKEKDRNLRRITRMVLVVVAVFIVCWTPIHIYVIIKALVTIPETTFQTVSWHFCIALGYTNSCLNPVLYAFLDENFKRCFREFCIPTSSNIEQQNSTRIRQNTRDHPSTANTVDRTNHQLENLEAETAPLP

Compound | IC50 ([1]; Cavia porcellus, electrically induced twitch contractions, cumulative application 3·10^−8 to 10^−5 M, mean ± s.e.m. of 4 experiments) [nM] | % reversal by naloxone ([1]; naloxone 10^−6 M added after the last application, without wash out) [%] | threshold concentration ([1]; reduction of electrically induced contractions) | Twitch contraction remaining at highest concentration (% of pre-value) ([1]; twitch reaction remaining at highest concentration 10^−5 M, mean ± s.e.m., hydrochloride) [% pre-value] | efficacy reached at highest dose ([2]; 31.6 mg/kg i.v.) | ED50 referred allodynia (95% confidence intervals) ([2]; i.v. 4 hours after mustard oil, 1 mN von Frey filament) | ED50 referred hyperalgesia (95% confidence intervals) ([2]; i.v. 4 hours after mustard oil, 16 mN von Frey filament) | duration of action in the referred hyperalgesia ([2]; i.v., time course) | time of maximal efficacy after administration ([2]; i.v., time course) [min] | ED50 referred allodynia (95% confidence intervals) ([3]; 1 mN von Frey filament, 20-40 min after mustard oil) | ED50 referred hyperalgesia (95% confidence intervals) ([3]; 16 mN von Frey filament, 20-40 min after mustard oil) | ED50 spontaneous visceral pain behaviour (95% confidence intervals) ([3]; scored 2-12 min after mustard oil) | pain-alleviating action relative to morphine [4] | affinity, times less than that of morphine [5] [times]
CC[C@@H](c1cccc(O)c1)[C@@H](C)CN(C)C.Cl [tapentadol hydrochloride, (1 R,2R)-3-(3-dimethylamino-1-ethyl-2-methyl-propyl)-phenol hydrochloride] | 1490 ± 200 | 33.3 | about 10^−7 M | 5.77±1.26 | Almost full efficacy | 21.7 (19.3-25.0) mg/kg i.v. | 16.3 (12.5-19.9) mg/kg i.v. | more than 2 h | 20 | 3.75 (2.76-4.75) mg/kg i.v. | 3.93 (2.32-5.69) mg/kg i.v. | 1.47 (0.51-2.28) mg/kg i.v. |  | 
CC[C@@H](c1cccc(O)c1)[C@@H](C)CN(C)C [tapentadol, (1R,2R)-3-(3-dimethylamino-1-ethyl-2-methyl-propyl)-phenol] |  |  |  |  |  |  |  |  |  |  |  |  | two to three times less than that of morphine | 18
